Measurements published in patent US5215744A, “Methods for the treatment of tumors” (Boehringer Ingelheim GmbH, priority 1987, dated 1993).
“Also recorded” adds a separate entry of the source. Read-outs that look alike come from different tables or passages of the source.

Columns and labels:
[1] = system: LIZIO leukemia; conditions: with MTX; cited from earlier work
[2] = system: explanted mouse peritoneal leukocytes and other cells; conditions: in vitro; cited from earlier work
[3] = system: SEKI-F melanoma cells; experiment: Survival after continuous exposure to dipyridamole and interferon β; format: cell-based, human
Excerpt: Culture and the exposure conditions were the same as described in the previous manuscript.

[4] = system: nucleoside transport through the cell membrane; conditions: cited from earlier work
[5] = system: interferon in mice; conditions: I.V.; cited from earlier work
[6] = system: metastasis; conditions: cited from earlier work
[7] = system: KT cells; experiment: Cell proliferation inhibition test (trypan-blue exclusion), continuous exposure; format: cell-based, human
Excerpt: (§1) Four established cell lines were used. These were MM-1CB, derived from tissues of malignant melanoma (level IV, pT4 N0 M0) in a person (Jpn. J. Dermatol. 96:947 (1986)); KT, derived from metastatic brain tumor in a person (J. Rad. Res. 26:59 (1985) and The 44th Meeting of Japanese Cancer Association, 718 (1985)); PLC/PRF/5, derived from human hepatoma (Brit. J. Cancer 34:509-515 (1976)) and a transformed cell line RSa (Virology 135:20-29 (1984), and J. Natl. Cancer Inst. 56:919-926 (1976)).
(§2) Cells were cultured with Eagle's minimal essential medium (EMEM) containing 10% fetal bovine serum (GIBCO, U.S.A.) and antibiotics ([…] streptomycin/ml and 100 units penicillin G/ml), in an incubator at 37° C. under 5% CO2.
(§3) Other chemical agents were purchased from the Nakarai Co., Ltd., Japan.
(§4) Changes of medium with and without agents were carried out every other day. The viable cells were determined by trypan-blue exclusion test and counted with a hemocytometer. The survival percentage ratio was expressed as (counts of viable cells in test dishes per counts of viable cells in control dishes) x 100%, as described elsewhere in, e.g., Mutation Research 106:357-376 (1982) and […]. 67:651-661 (1986).
(§5) Most of experiments were carried out under a dim light or in the dark. Results were expressed as the mean of values obtained from more than two independent experiments.

[8] = system: MM-1CB; experiment: as above; format: cell-based, human
Excerpt: as §1, §2, §3, §4, §5

[9] = system: PLC/PRF/5 cells; experiment: as above; format: cell-based, human; conditions: HuIFN and dipyridamole (FIG. 5)
Excerpt: as §1, §2, §3, §4, §5

[10] = system: chinese hamster ovary cells; conditions: in vitro and in vivo; cited from earlier work
[11] = system: KT cells; experiment: Microscopic study of morphology; format: cell-based, human; conditions: combination treatment, dipyridamole 0.1 μM and HuIFN-α 10 units/ml (FIG. 6)
Excerpt: (§6) Cells seeded in test dishes were observed and photographed using OLYMPUS IMT-2 ([…] amplification).

[12] = system: MM-1CB; experiment: Microscopic study of morphology; format: cell-based, human; conditions: dipyridamole 0.1 μM with HuIFN-β 10 units/ml, 6 days (FIG. 2)
Excerpt: as §6

[13] = system: PLC/PRF/5 cells; experiment: Microscopic study of morphology; format: cell-based, human; conditions: combination treatment, dipyridamole 0.1 μM and HuIFN-β 10 units/ml (FIG. 7)
Excerpt: as §6

[14] = system: MM-1CB cells; experiment: Survival of MM-1CB cells after sequential dipyridamole / interferon β treatment; format: cell-based, human; conditions: vs simultaneous administration; cells cultured in dishes (FIG. 11)
Procedure: Experimental numbers (Exp. Nos.) 1, 2, and 3 were the results obtained under reported cell-culture-conditions. In Exp. Nos. 4 and 5, treatment with DP alone and without IFN β was done during […] of the experiment schedule, respectively. In Exp. No. 6 IFN β treatment alone, without the DP addition, was done after DP treatment alone for the first 24 hours of the experimental schedule; after the DP treatment culture medium was depleted and cells were washed three times with Eagle's minimal essential medium, followed by being cultured with medium containing IFN β.

[15] = system: salvage pathway of DNA synthesis; conditions: cited from earlier work
[16] = system: activity of N-phosphoracetyl-L-aspartate (PALA); conditions: in vitro and in vivo; cited from earlier work
[17] = system: MM-1CB, KT and PLC/PRF/5 cells; experiment: Anticellular action of HuIFN combined with dipyridamole (FIGS. 3-5); format: cell-based, human; conditions: FIGS. 3B, 4B and 5B
Procedure: as §4

[18] = system: interferon effect; experiment: Enhancement of interferon effect in vitro; format: cell-based
[19] = system: RSa cells; experiment: DNA synthetic activity test ([^3 H]dTHD uptake into acid insoluble materials); format: cell-based, human; conditions: for activity at 0.1 µM: Homo sapiens, 24 h, RSa cells, read-out: DNA synthesis (% of control)
Excerpt: as §1, with “(1976)). [^3 H]dTHD uptake into acid insoluble materials were estimated in KT and RSa cells treated with the various agents, as described in J. Gen. Virol. […] 67:651-661 (1986).” for “(1976)).”

Structure (SMILES): OCCN(CCO)c1nc(N2CCCCC2)c2nc(N(CCO)CCO)nc(N3CCCCC3)c2n1 [dipyridamole, 2,6-bis(diethanolamine)-4,8-dipiperidino-pyrimido[5,4-d]pyrimidin]
- antitumor activity of MTX [1]: not dramatically improved
- interferon production [2]: induced interferon production in vitro in explanted mouse peritoneal leukocytes and other cells
- inhibitory effect on cell proliferation ([3]; dipyridamole alone (FIG. 14)): little inhibitory effect on cell proliferation
- enhancement of cell proliferation inhibition induced by interferon ([3]; with interferon β 100-1000 IU/ml, 6 days (FIG. 14)): can enhance cell proliferation inhibition induced by interferon
- nucleoside transport [4]: can inhibit nucleoside transport through the cell membrane
- interferon induction in mice [5]: induced interferon in mice after I.V. administration
- metastatic effect [6]: potential metastatic effect
- synergistic inhibitory activity, susceptibility ([7]; HuIFN and dipyridamole (FIG. 4)): high susceptibility to the synergistic inhibitory activity
- inhibition of cell replication, combination ([7]; HuIFN-α with simultaneous dipyridamole (FIG. 4)): inhibition of cell replication was enhanced
- influence on KT cell replication ([7]; dipyridamole alone, less than 0.1 μM (FIG. 4B)): scarcely influenced KT cell replication
- concentration that enhances the inhibitory effect of HuIFN-α ([7]; with HuIFN-α (FIG. 4B)): less than 0.1 μM
- effect with HuIFN-α, -β and -γ ([8]; 0.1 μM dipyridamole continuously, 6 days (FIG. 3A)): additive effect with HuIFN-α, -β and -γ was also observed
- inhibition of cell growth ([8]; 0.1 μM dipyridamole with 10 units/ml HuIFN-β, more than 4 days (FIG. 1)): considerable inhibition of cell growth
- suppression of cell proliferation ([8]; agent alone: 10 units/ml HuIFN-β or 0.1 μM dipyridamole (FIG. 1)): only slightly effective in suppressing cell proliferation
- lower concentration effective in enhancing the anticellular effect of HuIFN ([8]; with HuIFN, 6 days (FIG. 3B)): 0.01 µM
- synergistic inhibitory activity, susceptibility [9]: high susceptibility to the synergistic inhibitory activity
- toxicity of methotrexate (MTX) [10]: enhanced the toxicity of methotrexate (MTX)
- cellular morphological conditions [11]: showed impairment after the combination treatment
- cell morphology [12]: morphologically impaired
- cellular morphological conditions [13]: showed impairment after the combination treatment
- effect of dipyridamole pretreatment on proliferation [14]: more effective than a simultaneous administration of the two agents
- block of the salvage pathway of DNA synthesis [15]: effective blocker of the salvage pathway of DNA synthesis
- potentiation of PALA [16]: can potentiate the activity of N-phosphoracetyl-L-aspartate (PALA) in vitro and in vivo
- most effective concentration for the synergistic enhancement of HuIFN action [17]: less than 0.1 μM
- dose that enhances the interferon effect in vitro [18]: less than 1 μM
- DNA synthesis inhibition, comparison in words ([19]; 0.1 μM dipyridamole or mopidamole, alone vs combined with HuIFN-α): inhibited less than with combined treatment with HuIFN-α; also recorded: significantly more effective than mopidamole/HuIFN-α
- activity at 0.1 µM ([19]; agent 0.1 μM combined with HuIFN-α 1 unit/ml): 61%
- activity at 0.1 µM ([19]; agent 0.1 μM, HuIFN-α 0 unit/ml): 92%
